Measured values as given in publication PMC7211882, “Controlled release of basic fibroblast growth factor from a peptide biomaterial for bone regeneration” (Royal Society Open Science, 2020).

Target: T1, Proteinase K (Parengyodontium album, UniProt P06873)
T1 construct: purchased RayBiotech, Norcross, GA, USA
Assay: Peptide degradation by proteinase K
Assay type: in vitro ADME
Conditions: proteinase K 0.05 mg ml^-1, 37°C, 4 h, D-RADA16 0.2 mg ml^-1, intact peptide by HPLC (C18), three replicates
Procedure: Proteinase K solution (RayBiotech, Norcross, GA, USA) (0.05 mg ml^−1) was added in D-RADA16 and nHA/PA66/D-RADA16 groups, respectively. All samples were incubated at 37°C, and 400 µl aliquots were removed at various time points (1, 2, 4, 6, 8, 12, 24 and 48 h). The enzymatic reaction was terminated by the addition of phenylmethanesulfonyl fluoride (working concentration: 0.1 to 1 mM) and the concentration of the intact peptide were analysed by HPLC (LCMS-2020; Shimadzu, Kyoto, Japan) under the following conditions: Venusil XBP C18, 5 µm, 4.6 × 50 mm (Agela, Tianjin, China); sample injection volume: 100 µl; gradient elution: A, 0.035% trifluoroacetic acid (TFA) in water; and B, 0.035% TFA in acetonitrile/water (80 : 20, vol/vol). A gradient of 10–100% B in 10 min was conducted. The experiment was conducted in three replicates.
Proteinase K, a highly non-specific proteolytic enzyme, was used to examine the stability of D-RADA16 in the various composites. The concentration of each D-RADA16 was set to 0.2 mg ml^−1. And after 4 h, only 30–40% of the peptide remained in the control samples, whereas over 50% of the peptide still remained in the experimental samples. Similar results were observed after 24 and 48 h (figure 1d).

T1 sequence (P06873 106-384): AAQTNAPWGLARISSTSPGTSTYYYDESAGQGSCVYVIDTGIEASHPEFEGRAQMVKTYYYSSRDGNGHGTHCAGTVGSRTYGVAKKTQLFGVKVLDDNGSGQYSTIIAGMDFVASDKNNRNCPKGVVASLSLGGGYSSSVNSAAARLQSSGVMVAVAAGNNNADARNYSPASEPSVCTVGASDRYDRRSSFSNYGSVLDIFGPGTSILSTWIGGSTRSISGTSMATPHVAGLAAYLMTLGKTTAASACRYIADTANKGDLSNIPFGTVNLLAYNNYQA

Question: With `CC(=O)N[C@H](CCCNC(=N)N)C(=O)N[C@H](C)C(=O)N[C@H](CC(=O)O)C(=O)N[C@H](C)C(=O)N[C@H](CCCNC(=N)N)C(=O)N[C@H](C)C(=O)N[C@H](CC(=O)O)C(=O)N[C@H](C)C(=O)N[C@H](CCCNC(=N)N)C(=O)N[C@H](C)C(=O)N[C@H](CC(=O)O)C(=O)N[C@H](C)C(=O)N[C@H](CCCNC(=N)N)C(=O)N[C@H](C)C(=O)N[C@H](CC(=O)O)C(=O)N[C@H](C)C(N)=O` [D-RADA16, Ac-RADARADARADARADA-CONH2] as the compound, how does the intact peptide remaining read?
Answer: Its intact peptide remaining is 30–40%.
